Source: ChEMBL document CHEMBL4616634, “4β-Hydroxywithanolide E from Goldenberry (Whole Fruits of Physalis peruviana L.) as a Promising Agent against Chronic Obstructive Pulmonary Disease” (J Nat Prod, 2020)
Calls of active or inactive are those of the source. The rule behind the calls is not given here.

Legend:
[1] = molecular target: T1, Nuclear factor erythroid 2-related factor 2 (Homo sapiens) (UniProt Q16236); assay: Activation of Nrf2 in human BEAS2B cells assessed as increase in GCLM protein expression incubated for 12 hrs by immunoblot analysis; assay type: cell-based
T1 sequence (whole entry): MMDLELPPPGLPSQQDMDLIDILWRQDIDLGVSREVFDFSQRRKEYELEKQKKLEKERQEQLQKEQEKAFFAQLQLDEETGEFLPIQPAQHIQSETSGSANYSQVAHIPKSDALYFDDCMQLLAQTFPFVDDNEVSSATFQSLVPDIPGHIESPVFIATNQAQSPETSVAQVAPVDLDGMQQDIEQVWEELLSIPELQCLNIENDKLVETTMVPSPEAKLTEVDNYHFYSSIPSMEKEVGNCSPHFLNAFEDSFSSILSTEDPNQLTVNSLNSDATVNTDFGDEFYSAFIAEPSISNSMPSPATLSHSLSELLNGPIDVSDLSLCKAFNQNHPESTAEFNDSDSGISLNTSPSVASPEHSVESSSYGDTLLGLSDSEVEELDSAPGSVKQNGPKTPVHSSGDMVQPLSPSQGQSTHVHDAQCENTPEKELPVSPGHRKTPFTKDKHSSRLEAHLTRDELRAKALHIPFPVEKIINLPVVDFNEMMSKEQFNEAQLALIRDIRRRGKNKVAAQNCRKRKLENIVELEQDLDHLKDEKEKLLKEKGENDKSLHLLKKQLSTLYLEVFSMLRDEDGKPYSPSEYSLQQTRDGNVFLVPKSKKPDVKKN

Mus musculus [2] = assay: Antiinflammatory activity in C57BL/6 mouse model of CS-induced pulmonary injury assessed as increase in GCLM protein expression in lungs at 2 to 4 mg/kg, ip for 5 days by immunoblot analysis; assay type: functional, organism-based
Mus musculus [3] = assay: Antiinflammatory activity in C57BL/6 mouse model of CS-induced pulmonary injury assessed as reduction in hyperplasia of pneumo-cytes in lungs at 2 to 4 mg/kg, ip for 5 days by hematoxylin and eosin staining based fluorescence microscopic analysis; assay type: functional, organism-based
BEAS-2B = assay: Antioxidant activity in human BEAS2B cells assessed as increase in GSH level at 2 uM incubated for 1 to 12 hrs; assay type: functional, cell-based
Mus musculus [4] = assay: Antiinflammatory activity in C57BL/6 mouse model of CS-induced pulmonary injury assessed as reduction in IL-6 protein expression in lungs at 2 to 4 mg/kg, ip for 5 days by ELISA; assay type: functional, organism-based
[5] = molecular target: T1, Nuclear factor erythroid 2-related factor 2 (Homo sapiens); assay: Activation of Nrf2 in human BEAS2B cells assessed as increase in NQO1 mRNA expression at 0.5 to 2 uM incubated for 24 hrs by qRT-PCR analysis; assay type: cell-based
[6] = molecular target: T1, Nuclear factor erythroid 2-related factor 2 (Homo sapiens); assay: Activation of Nrf2 in human BEAS2B cells assessed as increase in luciferase activity at 0.25 to 2 uM incubated for 18 hrs by dual luciferase reporter gene assay; assay type: cell-based
Mus musculus [7] = assay: Antiinflammatory activity in C57BL/6 mouse model of CS-induced pulmonary injury assessed as reduction in IL-1beta protein expression in lungs at 2 to 4 mg/kg, ip for 5 days by ELISA; assay type: functional, organism-based
[8] = molecular target: T1, Nuclear factor erythroid 2-related factor 2 (Homo sapiens); assay: Activation of Nrf2 in human BEAS2B cells harboring wild type Keap1 assessed as increase in Nrf2 protein expression at 2 uM after12 hrs in presence of Keap1-siRNA by immunoblot analysis; assay type: cell-based
Mus musculus [9] = assay: Antioxidant Activity in C57BL/6 mouse model of CS-induced pulmonary injury assessed as increase in SOD level in serum at 2 to 4 mg/kg, ip for 5 days; assay type: functional, organism-based
Mus musculus [10] = assay: Antiinflammatory activity in C57BL/6 mouse model of CS-induced pulmonary injury assessed as reduction in goblet cell hyperplasia in peribronchial in lungs at 2 to 4 mg/kg, ip for 5 days by hematoxylin and eosin staining based fluorescence microscopic analysis; assay type: functional, organism-based
[11] = molecular target: T1, Nuclear factor erythroid 2-related factor 2 (Homo sapiens); assay: Activation of Nrf2 in human BEAS2B cells assessed as increase in Keap1 protein expression at 5 uM incubated for 24 hrs by immunoblot analysis; assay type: cell-based
[12] = molecular target: T1, Nuclear factor erythroid 2-related factor 2 (Homo sapiens); assay: Activation of Nrf2 in human BEAS2B cells assessed as increase in Nrf2 protein level incubated for 12 hrs by immunoblot analysis; assay type: cell-based
Mus musculus [13] = assay: Antiinflammatory activity in C57BL/6 mouse model of CS-induced pulmonary injury assessed as reduction in 8-oxo-dG in lungs at 2 to 4 mg/kg, ip for 5 days by ELISA; assay type: functional, organism-based
RAW264.7 [14] = assay: Inhibition of LPS-induced IL-1beta protein expression in mouse RAW264.7 cells at 0.5 to 4 uM preincubated for 1 hr followed by LPS-stimulation and measured after 16 hrs by immunoblot analysis; assay type: functional, cell-based
RAW264.7 [15] = assay: Inhibition of LPS-induced TNFalpha mRNA expression in mouse RAW264.7 cells at 0.5 to 4 uM preincubated for 1 hr followed by LPS-stimulation and measured after 6 hrs by qRT-PCR analysis; assay type: functional, cell-based
RAW264.7 [16] = assay: Inhibition of LPS-induced iNOS protein expression in mouse RAW264.7 cells at 0.5 to 4 uM preincubated for 1 hr followed by LPS-stimulation and measured after 16 hrs by immunoblot analysis; assay type: functional, cell-based
[17] = molecular target: T1, Nuclear factor erythroid 2-related factor 2 (Homo sapiens); assay: Activation of Nrf2 in human BEAS2B cells assessed as increase in Nrf2 protein expression at 1 uM incubated for 8 hrs by immunoblot analysis; assay type: cell-based
[18] = molecular target: T1, Nuclear factor erythroid 2-related factor 2 (Homo sapiens); assay: Activation of Nrf2 in human BEAS2B cells harboring Keap1-C288S mutant assessed as increase in Nrf2 protein expression at 2.5 uM after12 hrs in presence of Keap1-siRNA by immunoblot analysis; assay type: cell-based
[19] = molecular target: T2, Nuclear factor erythroid 2-related factor 2 (Mus musculus) (UniProt Q60795); assay: Activation of Nrf2 in mouse Hepa1c1c7 cells assessed as increase in quinone reductase activity incubated for 24 hrs by MTT based assay; assay type: cell-based
T2 sequence (whole entry): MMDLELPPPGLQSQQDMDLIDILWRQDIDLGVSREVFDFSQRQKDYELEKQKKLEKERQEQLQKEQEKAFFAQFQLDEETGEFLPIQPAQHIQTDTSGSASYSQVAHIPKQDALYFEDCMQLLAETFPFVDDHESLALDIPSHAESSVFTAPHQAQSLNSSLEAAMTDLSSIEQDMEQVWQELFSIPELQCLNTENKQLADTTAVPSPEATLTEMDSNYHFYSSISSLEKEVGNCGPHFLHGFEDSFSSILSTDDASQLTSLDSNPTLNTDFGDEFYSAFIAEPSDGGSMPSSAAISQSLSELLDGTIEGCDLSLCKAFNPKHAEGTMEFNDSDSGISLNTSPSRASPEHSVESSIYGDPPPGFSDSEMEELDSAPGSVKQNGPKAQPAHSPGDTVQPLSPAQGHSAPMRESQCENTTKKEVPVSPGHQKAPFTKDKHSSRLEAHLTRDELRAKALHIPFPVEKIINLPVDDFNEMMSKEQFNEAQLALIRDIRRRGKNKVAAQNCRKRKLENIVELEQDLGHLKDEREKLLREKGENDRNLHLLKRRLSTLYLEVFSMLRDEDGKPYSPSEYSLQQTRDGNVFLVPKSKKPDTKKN

[20] = molecular target: T1, Nuclear factor erythroid 2-related factor 2 (Homo sapiens); assay: Activation of Nrf2 in human MDA-MB-231 cells assessed as increase in ARE luciferase activity at > 4 uM incubated for 16 hrs by luciferase reporter gene assay; assay type: cell-based

CC1=C(C)C(=O)O[C@H]([C@](C)(O)[C@]2(O)CC[C@@]3(O)[C@@H]4C[C@H]5O[C@]56[C@@H](O)C=CC(=O)[C@]6(C)[C@H]4CC[C@]23C)C1
Activity [1]: Dose-dependent effect | Activity (Mus musculus [2]): Active | Activity (Mus musculus [3]): Active | Activity (BEAS-2B): Active | Activity (Mus musculus [4]): Active | Activity [5]: Active | Activity [6]: Active | Activity (Mus musculus [7]): Active | Activity [8]: Active | Activity (Mus musculus [9]): Active | Activity (Mus musculus [10]): Active | Activity [11]: inactive | Activity [12]: Dose-dependent effect | Activity (Mus musculus [13]): Active | inhibition (RAW264.7 [14]): Active | inhibition (RAW264.7 [15]): Active | inhibition (RAW264.7 [16]): Active | Activity [17]: Active | Activity [18]: inactive | Activity [19]: Dose-dependent effect | Activity [20]: inactive
